Experimental data taken from PMC12070314, “Efficient Small-Molecule Reversal Agents for Anticoagulant Fondaparinux” (ACS Pharmacology & Translational Science, 2025).

Experiments:
[1] = test system: FXa/ATIII inhibited by LMWH; experiment: In vitro FXa/ATIII enzymatic assay with LMWH; type: biochemical, human; conditions: [LMWH] = [antidote] = 0.1 or 10 μM, Figure S3
Description: Recombinant antithrombin III and coagulation factor Xa were obtained from two different kits, Berichrom Heparin test (SIEMENS) and Kinetichrome Anti-Xa Heparin kit (Iduron). Methods for both kits are similar, but not identical. Differences will be spotted by method A (SIEMENS) and method B (Iduron). Following the manufacturer’s instructions, stock solutions were prepared as follows: human antithrombin III (1 IU/mL) and factor Xa reagent (0.4 μg/mL, human plasma fraction with additives Tris, sodium chloride, and EDTA). Chromogenic substrate specific for factor Xa was dissolved at 4 mM concentration (A: Z-D-Leu-Gly-Arg-ANBA-methyl amide, and B: Z-D-Arg-Gly-Arg-pNA). Additionally, either 4-nitroaniline (A) or N-Boc-4-nitroaniline (B) was added to the substrate solution at a concentration of 1.6 mM and used as an internal standard to quantify the hydrolysis of the chromogenic substrate. All compounds were dissolved in Milli-Q water at the desired stock concentrations prior to start of the assays and kept at 4 °C. […] FXa/ATIII activity was represented as the percent of hydrolysis, which was calculated from the normalized area of the cleaved peptide at 405 nm at each corresponding time point. […]

[2] = Hemolysis assay; type: cell-based; conditions: freshly isolated mouse erythrocytes, roughly 4-5% suspension, 37 °C
Description: Mouse blood (4 mL) was collected in a sodium citrate tube and immediately centrifuged at 1700g for 5 min. The supernatant was removed, and the erythrocytes were washed by adding 2 mL of PBS. It was centrifuged again at 1700g for 5 min. The washing step was repeated twice more. The supernatant was finally removed, and the erythrocytes were diluted in PBS until obtaining a roughly 4–5% suspension. 50 μL of erythrocyte solution was mixed with 50 μL of test compound (3×× at the desired concentration). As a negative control, 50 μL of PBS was used, while 10% Triton X-100 was used as a positive control. The samples were incubated at 37 °C for 60 min. After that, they were centrifuged (1700g for 5 min), and the supernatant was transferred to a 96-well plate. Absorbance was measured at 405 nm. The experiment contained three technical replicates. The results are the average from three independent experiments.

[3] = Fluorescence titration with fondaparinux; type: binding; conditions: for Kd: read-out: Apparent overall affinity for fond, K D^app ≈ BC50°
Description: The fluorescence emission spectrum of 3AC upon excitation at 280 nm is a suitable indicator of the interaction with heparin-like GAGs. Thus, the titration of 3AC with fond in Bis-Tris buffer at pH 7.5 produced a perturbation of the corresponding intensity of the fluorene emission band (Figure A), presenting two clearly differentiated phases. At a low fond/3AC ratio, the fluorescence emission intensity decreases most likely due to the proximity of chromophores when several molecules of 3AC are closely bound to one molecule of fond. After reaching a fond/3AC molar ratio of ∼0.6, the emission band starts to recover as 3AC molecules are redistributed to equimolecular complexes with fond. Considering the disaccharide repeating unit of heparin as the main binding epitope of our ligands and the electrostatic charge complementarity, we can hypothesize the formation of fond/3AC supramolecular complexes with both 1:1 and 1:2 stoichiometries as the simplest binding model satisfying the two-phase behavior (Figure B). The emission band variation was successfully fitted to the 1:2 fond/3AC equilibria, rendering the formation constants (log β values) for the corresponding complexes (inset in Figure A).
Fluorescence emission and excitation spectra were collected on a Photon Technology International Instrument, Fluorescence Master Systems, using Felix32 software and cuvettes with 10 mm path length. Stock solutions of 3AC (10 μM) and fondaparinux (0.23 mM, also containing 10 μM 3AC) were prepared in 1 mM Bis-Tris buffer at pH 7.5. Then, 2 mL of binder solution was placed on a quartz cell, and the emission fluorescence spectrum was measured upon excitation at 280 nm. Then, small volumes of fond stock solution were added to the cell, and the fluorescence spectra were acquired after each addition. The titration experiments were fitted using HyperSpec 2008 software, , which allows a nonlinear global fitting of the full emission spectra to a binding mode as defined by the user.

Kd ([3]; 1 mM Bis-Tris buffer pH 7.5) [µM]	Stepwise binding constant K (1:1) ([3]; fond/3AC 1:1 complex, 1 mM Bis-Tris buffer pH 7.5)	Stepwise binding constant K (1:2) ([3]; fond/3AC 1:2 complex, 1 mM Bis-Tris buffer pH 7.5)	Compound	Percent recovery of peptide substrate hydrolysis vs LMWH [1]	hemolysis at 60 min [2] [%]	logβ(3AC-Fond) ([3]; formation constant from model fitting, 1:1 complex)	logβ(3AC2-Fond) ([3]; formation constant from model fitting, 1:2 fond/3AC complex)
4.5 ± 0.09	2.05 ± 0.05 × 10^5 M^–1	1.95 ± 0.19 × 10^4 M^–1	Oc1ccccc1CNCCCNCCCCNCCCNCc1ccc2c(c1)Cc1ccccc1-2 [Compound 3AC]	more active than prot and similar to cir	< 2	5.31(1)	9.60(3)
9.8 ± 0.3			Oc1ccc2ccccc2c1CNCCCNCCCCNCCCNCc1c(O)ccc2ccccc12 [Compound 3FF]	more active than prot and similar to cir	< 2		
